Laboratory results as given in patent US20250242035A1, “GLYCAN CONJUGATE COMPOSITIONS AND METHODS” (GANNA BIO, INC., priority 2022, published 2025).

Tests used:
DC-SIGNR = target: T1, DC-SIGNR (Homo sapiens, UniProt Q9H2X3); assay: In vitro glycan array protein binding, DC-SIGNR; conditions: 20 μg/mL protein, glycan printed at 100 μM
T1 construct: purchased R&D Systems 162-D2
T1 sequence (Q9H2X3 1-399): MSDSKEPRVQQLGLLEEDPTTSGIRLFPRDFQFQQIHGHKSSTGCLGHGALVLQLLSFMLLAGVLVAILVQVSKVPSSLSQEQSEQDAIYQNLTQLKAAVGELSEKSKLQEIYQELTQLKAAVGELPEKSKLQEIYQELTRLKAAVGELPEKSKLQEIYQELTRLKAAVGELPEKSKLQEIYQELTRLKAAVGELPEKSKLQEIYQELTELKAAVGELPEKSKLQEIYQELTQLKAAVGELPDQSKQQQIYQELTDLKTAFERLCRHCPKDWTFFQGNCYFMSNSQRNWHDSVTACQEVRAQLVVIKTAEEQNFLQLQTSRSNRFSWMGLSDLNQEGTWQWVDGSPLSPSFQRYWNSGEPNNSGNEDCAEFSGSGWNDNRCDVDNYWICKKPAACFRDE
Experimental: […]. Commercially available proteins tagged with human fragment crystallizable region (Fc) were used for the glycan array screening: DC-SIGNR (R&D Systems, 162-D2), Siglec7 (R&D Systems, 1138-SL), CD2 (R&D Systems, 1856-CD-050), CD83 (R&D Systems, 2044-CD), KLRF1 (R&D Systems, 1099-NK), CD28 (Sino Biological Inc., 11524-H41H).
Protein samples were prepared with 1% bovine serum albumin (BSA) in tris-sucrose-magnesium chloride (TSM) buffer with additional Ca^2+ (20 mM tris-HCl, 150 mM sodium chloride, 5 mM calcium chloride, 2 mM magnesium chloride, and 0.05% Tween 20). Proteins were incubated with the glycan array for 1 hour at room temperature at the concentrations indicated in Tables 9A-9F before being washed three times with wash buffer (20 mM tris-HCl, 150 mM sodium chloride, 5 mM calcium chloride, 2 mM magnesium chloride). The arrays were then contacted with Alexa Fluor 488-labeled goat anti-human IgG (H+L) (Invitrogen A-11013) at 5 μg/ml and measured by fluorescence detection. Values in Tables 9A-9F are reported in relative fluorescence units (RFUs).

FXII = assay: Knockdown measured using plasma FXII ELISA; type: in vivo, mice; conditions: 10-day post dose
Experimental: Glyco-siRNA conjugates were prepared as described in Examples 6 and 7, wherein the siRNA was an HPRT1-siRNA (SEQ ID NOS: 8 and 9).
Plasma from the 10-day post dose mice was collected using EDTA tube and saved at −80° C. before analysis. The plasma FXII levels were measured using Innov-Research FXII ELISA kit (Cat. No. IMSF12KT) following the provider's instructions.

Primary B cells = assay: In vitro glyco-siRNA internalization by stem loop qPCR, primary B cells; type: cell-based
Experimental: (§1) Primary B cells, T cells and NK cells were purchased from […] Technologies Inc. Primary B, T and NK cells were plated 24 hours before the experiment at 100,000 cells per well in […] of Roswell Park Memorial Institute (RPMI) medium with 10% fetal bovine serum (FBS) in 96-well plates. Glyco-siRNAs were incubated with cells for 4 hours. After incubation, media was removed and washed three times in PBS or PBS+150 mM NaCl. […] A final concentration of 1 mM dNTP, 5 U/μl transcriptase, 0.38 U/μl Rnase inhibitor, 50 nM stem loop RT primer (IDT) against siRNA targeting beta catenin (5′-[…]-3′ (SEQ ID NO: 21)) was mixed in a 10 μl volume reaction with 1× buffer. Frozen cell lysates were thawed and heated at 95° C. for 10 minutes and 5 μl of the boiled cell lysate was added to each 10 μl of reverse transcription mix. Samples were incubated first in 16° C. for 30 minutes then 42° C. for 30 minutes followed by 85° C. for 5 minutes and the samples were ready to be used for qPCR reaction. […] 1.5 ul of cDNA template from the reverse transcription reaction is added to the qPCR mix to a final volume for 10 μl. Samples were first incubated at 95° C. for 10 minutes followed by 40 cycles of 30 seconds of 95° C. and 1 minute at 60° C. Relative enrichment of siRNA over endogenous Micro-RNAs were calculated based on the Ct value of standard curve.

Primary T cells = assay: In vitro glyco-siRNA internalization by stem loop qPCR, primary T cells; type: cell-based
Experimental: as §1

[1] = test system: Natural Killer (NK) cells; assay: In vitro glyco-siRNA internalization by stem loop qPCR, NK cells; type: cell-based
Experimental: as §1

Siglec-7 = target: T2, Siglec-7 (Homo sapiens, UniProt Q9Y286); assay: In vitro glycan array protein binding, Siglec-7; conditions: 10 μg/mL protein, glycan printed at 100 μM
T2 construct: purchased R&D Systems 1138-SL
T2 sequence (Q9Y286 19-467): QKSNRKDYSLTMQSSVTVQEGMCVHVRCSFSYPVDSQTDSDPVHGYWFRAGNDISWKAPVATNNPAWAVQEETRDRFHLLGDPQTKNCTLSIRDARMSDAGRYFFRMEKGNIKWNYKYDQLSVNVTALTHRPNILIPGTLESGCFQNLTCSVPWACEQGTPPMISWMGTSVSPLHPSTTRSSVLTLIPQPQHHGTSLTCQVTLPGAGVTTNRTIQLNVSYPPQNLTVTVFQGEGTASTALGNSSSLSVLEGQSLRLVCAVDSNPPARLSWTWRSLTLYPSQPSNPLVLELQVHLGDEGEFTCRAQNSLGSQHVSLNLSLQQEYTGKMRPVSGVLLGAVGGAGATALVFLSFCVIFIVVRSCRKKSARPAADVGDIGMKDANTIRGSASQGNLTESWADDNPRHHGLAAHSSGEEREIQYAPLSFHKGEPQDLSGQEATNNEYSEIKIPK

For `CC(=O)N[C@H]1[C@H](O[C@H]2[C@@H](O)[C@@H](CO)O[C@@H](O[C@H]3[C@H](O)[C@@H](O)C(O)O[C@@H]3CO)[C@@H]2O)O[C@H](CO)[C@@H](O[C@@H]2O[C@H](CO)[C@H](O)[C@H](O)[C@H]2O[C@@H]2O[C@@H](C)[C@@H](O)[C@@H](O)[C@@H]2O)[C@@H]1O` (stereo partly shown) [K-30, Fuca1-2Galb1-4GlcNAcb1-3Galb1-4Glc], the “Binding to DC-SIGNR (20 μg/ml)(RFU)” value (DC-SIGNR) was 631597 RFU.

With `CC(=O)N[C@H]1[C@H](O[C@H]2[C@@H](O)[C@@H](CO)O[C@@H](O[C@H]3[C@H](O)[C@@H](O)C(O)O[C@@H]3CO)[C@@H]2O)O[C@H](CO)[C@@H](O[C@@H]2O[C@H](CO)[C@H](O)[C@H](O[C@H]3O[C@H](CO)[C@H](O)[C@H](O)[C@H]3O)[C@H]2O)[C@@H]1O[C@@H]1O[C@@H](C)[C@@H](O)[C@@H](O)[C@@H]1O` (stereo partly shown) [K-31, Gala1-3Galb1-4(Fuca1-3)GlcNAcb1-3Galb1-4Glc] the “Binding to DC-SIGNR (20 μg/ml)(RFU)” value (DC-SIGNR) was 543554.7 RFU.

For `CC(=O)NC1C(OC2C(O)C(CO)OC(OC3C(CO)OC(O)C(O)C3O)C2O)OC(CO)C(OC2OC(CO)C(O)C(OC3OC(CO)C(OC4OC(CO)C(O)C(O)C4OC4OC(C)C(O)C(O)C4O)C(O)C3NC(C)=O)C2O)C1O` (stereo not shown) [K-22, Fucα1-2Galb1-4GlcNAcb1-3Galb1-4GlcNAcb1-3Galb1-4Glc], the “Binding to DC-SIGNR (20 μg/ml)(RFU)” value (DC-SIGNR) was 1047827 RFU.

`CC(=O)N[C@H]1[C@H](O[C@H]2[C@@H](O)[C@@H](CO)O[C@@H](O[C@H]3[C@H](O)[C@@H](O)C(O)O[C@@H]3CO)[C@@H]2O)O[C@H](CO)[C@@H](O[C@@H]2O[C@H](CO)[C@H](O)[C@@H](O[C@@H]3O[C@H](CO)[C@@H](O)[C@H](O)[C@H]3NC(C)=O)[C@H]2O)[C@@H]1O` (stereo partly shown) [K-28, GlcNAcb1-3Galb1-4GlcNAcb1-3Galb1-4Glc] was tested, and the “Binding to DC-SIGNR (20 μg/ml)(RFU)” value (DC-SIGNR) was 723698.8 RFU.

For `[N-]=[N+]=NCCO[C@@H]1O[C@H](CO)[C@@H](O)[C@H](O)[C@H]1O` [X-2, 2-Azidoethyl β-D-glucopyranoside, reference compound], the “Knockdown Relative to PBS Control Measured Using FXII ELISA, % of PBS Control” value (FXII; 0.1 mg/kg) was 83.00 % of PBS Control, the “Knockdown Relative to PBS Control Measured Using FXII ELISA, % of PBS Control” value (FXII; 1 mg/kg) was 77.24 % of PBS Control and the “Primary B Cell Uptake (Fold Increase vs Naked siRNA)” value (Primary B cells; Donor 1, 4 hours incubation) was 2.72 Fold. The “Primary B Cell Uptake (Fold Increase vs Naked siRNA)” value (Primary B cells; Donor 2, 4 hours incubation) was 2.17 Fold, the “Primary T Cell Uptake (Fold Increase vs Naked siRNA)” value (Primary T cells; Donor 1, 4 hours incubation) was 2.83 Fold and the “Primary T Cell Uptake (Fold Increase vs Naked siRNA)” value (Primary T cells; Donor 2, 4 hours incubation) was 1.68 Fold. The “NK Cell Uptake (Fold Increase vs Naked siRNA)” value ([1]; Donor 1 repeat 1, NK cells incubated with glyco-siRNA for 4 hours) was 2.16 fold and the “NK Cell Uptake (Fold Increase vs Naked siRNA)” value ([1]; Donor 2 repeat 2, NK cells incubated with glyco-siRNA for 4 hours) was 2.60 fold.

With `CC(=O)N[C@H]1[C@H](O[C@H]2[C@@H](O)[C@@H](CO)O[C@@H](O[C@H]3[C@H](O)[C@@H](O)C(O)O[C@@H]3CO)[C@@H]2O)O[C@H](CO)[C@@H](O)[C@@H]1O` (stereo partly shown) [K-23, GlcNAcb1-3Galb1-4Glc] the “Binding to DC-SIGNR (20 μg/ml)(RFU)” value (DC-SIGNR) was 1047468 RFU.

For `CC(=O)NC1C(OCC2OC(OC3C(CO)OC(O)C(O)C3O)C(O)C(OC3OC(CO)C(O)C(O)C3NC(C)=O)C2O)OC(CO)C(O)C1O` (stereo not shown) [K-27, GlcNAcb1-3(GlcNAcb1-6)Galb1-4Glc], the “Binding to DC-SIGNR (20 μg/ml)(RFU)” value (DC-SIGNR) was 862190.8 RFU.

For `CC(=O)N[C@H]1[C@H](O[C@H]2[C@@H](O)[C@@H](CO)O[C@@H](O[C@H]3[C@H](O)[C@@H](O)C(O)O[C@@H]3CO)[C@@H]2O)O[C@H](CO)[C@@H](O[C@@H]2O[C@H](CO)[C@H](O)[C@H](O)[C@H]2O)[C@@H]1O[C@@H]1O[C@@H](C)[C@@H](O)[C@@H](O)[C@@H]1O` (stereo partly shown) [K-29, Galb1-4(Fucα1-3)GlcNAcb1-3Galb1-4Glc], the “Binding to DC-SIGNR (20 μg/ml)(RFU)” value (DC-SIGNR) was 718967.2 RFU.

In the case of `CC(=O)N[C@H]1[C@H]([C@H](O)[C@H](O)CO)O[C@@](O[C@H](CO)[C@@H](O)[C@@H]2O[C@@](O[C@H]3[C@@H](O)[C@@H](CO)O[C@@H](O[C@H]4[C@H](O)[C@@H](O)C(O)O[C@@H]4CO)[C@@H]3O)(C(=O)O)C[C@H](O)[C@H]2NC(C)=O)(C(=O)O)C[C@@H]1O` (stereo partly shown) [K-51, Neu5Ac(a2-8)Neu5Ac(a2-3)Gal(b1-4)Glc], the “Binding to Siglec-7 (10 μg/ml)(RFU)” value (Siglec-7) is reported as 28368.5 RFU.
